# Patent US20160317560A1, “PARTICLES CONTAINING PHOSPHOLIPIDS OR BIOACTIVE FATTY ACIDS AND USES THEREOF” (THE UNIVERSITY OF NORTH CAROLINA AT CHAPEL HILL, priority 2013, published 2016)
# “Also recorded” adds a separate entry of the source.
# Tests used:
# 2D2 T cells = assay: Murine DC/T-cell co-culture (mouse dendritic cells and MOG-specific 2D2 T cells), T-cell activation and Treg induction; format: cell-based; details: for IFN-γ production by T cells: in the presence of MOG antigen, 50 μM PS (FIG. 11A)
# Text: FIG. 5 depicts a murine model of multiple sclerosis (2D2) for evaluating T-cell activation in murine DC/T-cell co-culture.
# FIG. 11A-B depicts programming regulatory T cells with phosphatidylserine Nanoparticles. A) Flow plots of 2D2 T cells after co-stimulation with bone-marrow derived dendritic cells+/−the MOG peptide. […] (*=p<0.05).
# Using a co-culture model with mouse dendritic cells and 2D2 T cells specific for the MOG-peptide, Th1-skewed IFN-γ producing T cells were turned into FOXP3+, IL-10 producing T regulatory cells (FIGS. 10 and 11). In the absence of antigen, roughly 20% of all T cells were programmed into anti-inflammatory IL-10 producing FOXP3+ regulatory T cells. This was about a 10-15 fold increase as compared to blank PLGA particles controls. This was about 4-5 fold increase over the soluble PS control at the same dose. This is an exceptionally high % of T regulatory cells in any in vitro or in vivo system.
# In the presence of soluble MOG antigen, about 10% of T cells produced IFN-γ in the blank 80×320 nm PLGA control group. […] The presence of antigen led to a 10% IL-10+, FOXP3+ T regulatory population in the presence of blank PLGA particles or soluble PS. PS-PLGA particles induced 2 fold higher levels of this regulatory T cell population, about 20% of all T cells.
# [1] = test system: primary progressive multiple sclerosis; assay: Murine model of primary progressive multiple sclerosis; format: in vivo; details: 14 day study
# Text: FIG. 15 depicts a murine model of primary progressive multiple sclerosis. Reproduced from the Reeves Foundation. FIG. 16 provides data showing PS-loaded particles reduce MS symptoms. The study was 14 days to emphasize the suppression of the neuroinflammation ramp-up during the model.
# [2] = test system: bone marrow derived mouse macrophages; assay: Inflammasome activation in bone marrow derived mouse macrophages; format: cell-based; details: 1 μm and 80×320 nm particles; soluble form at the same dose; FIG. 19
# Text: FIG. 19. Anti-inflammatory Programming Particles.
# Disclosed herein are data showing emergent properties when bioactive fatty acids and phospholipids are delivered via the particles described herein. […] Other phospholipids and bioactive fatty acids could have similar properties when particulated as described herein.
compound,measurement,setting,value
"CCCCCCCC/C=C\CCCCCCCC(=O)O[C@H](COC(=O)CCCCCCCCCCCCCCCCC)COP(=O)(O)OC[C@H](N)C(=O)[O-].[Na+] [PS SOL, Phosphatidylserine]",FOXP3+ T cells,"2D2 T cells; FIG. 11A, 50 μM PS",not seen
same,IFN-γ production by T cells,2D2 T cells,inhibit IFN-γ production
same,IFN-γ production by T cells,2D2 T cells; listed as soluble PS,inhibited to baseline levels; also recorded: can inhibit IFN-γ as well as particulate PS
same,IFN-γ production by T cells,2D2 T cells; listed as soluble phosphatidylserine (PS),dampen IFN-γ production
same,"IL-10+, FOXP3+ T regulatory population, % of all T cells",2D2 T cells; presence of soluble MOG antigen,10%
same,Maximum Score,[1]; (+/−),0.8 (+/−0.2)
same,Disease Incidence,[1]; (affected/total animals),83% (10/12)
same,inflammasome activation / signaling,[2],exacerbated inflammation
